The values that follow come from paper PMC10488223 (International Journal of Molecular Sciences, 2023).

The term IC50 denotes the concentration at which inhibition is half-maximal.

One series addresses mouse BACE-1 (Mus musculus, UniProt P56818). Nature of the series: BACE-1 activity, fluorescent peptide substrate. The class given is biochemical. The note with it: mean ± SD, four determinations; pH 4.5. On the procedure:
BACE-1 activity was assayed as previously reported. Briefly, the reaction mixtures contained 2.1 ng/µL mouse BACE-1 in 50 mM ammonium acetate buffer, pH 4.5 supplemented with 1 mM triton X-100, and the appropriate amount of the hybrid derivatives. The mixture was incubated for 10 min at room temperature and started by adding 100 nM final concentration of the fluorescent peptide substrate. The increase in fluorescence was followed kinetically using excitation and emission wavelengths of 320 and 420 nm, respectively. The rate was derived from the linear portion of the kinetics, usually in the first 30 min of the reaction. The known BACE-1 inhibitors I and IV were used as positive controls.

The next series has as its target T1, Aβ 1–40 peptide (Homo sapiens, UniProt P05067).
T1 construct: Human β-amyloid peptide (1–40, cat. ab120479); purchased Abcam (Cambridge, UK) ab120479
Nature of the series: Aβ 1–40 self-aggregation inhibition assay (thioflavine T). It is filed as biochemical. The note with it: for IC50: 96 µM peptide, 37 °C, 24 h, mean ± SD, three determinations, read-out: IC50 on Aβ 1–40 fibril formation; for interference with fibril formation: up to 500 µM. Here is the method: The percent inhibition due to the presence of the self-aggregation inhibition was calculated from the decrease in the fluorescence signal after the subtraction of the background fluorescence of a thioflavin T solution obtained in the same way.

For series [1], the target named is T2, Acetylcholinesterase from Electrophorus electricus (AChE) (Electrophorus electricus, UniProt O42275).
T2 construct: purchased Sigma-Aldrich (Milano, Italy)
Nature of the series: biochemical. The following applies: for mechanism of inhibition on AChE: from Km and Vmax at different inhibitor concentrations; for IC50: mean ± SD, three determinations, pH 7.4, 500 μM acetylthiocholine. Here is the method: (§1) AChE or BuChE activity was assayed by the Ellman method as previously reported, using acetylthiocholine or butirrylthiocholine as a substrate, respectively. […] The reaction was started by the addition of 100 mU/mL AChE or BuChE, and the initial rate of the reaction was derived from the linear portion of the kinetics. […] Linear curve fits were obtained with the least-squares method, and the significance of the correlation was estimated from the squared correlation coefficient r^2.
(§2) The determination of the kinetic parameters Km and Vmax for both cholinesterase and monoamine oxidase activities were determined by measuring the initial velocity (v0) of substrate consumption/product formed at different substrate concentrations, as reported above. […] The Ki values obtained at different inhibitor concentrations were averaged to obtain a unique value of apparent Ki for each compound. Kinetic parameters and their corresponding standard errors were evaluated using a simple weighting method (Student’s t test).

Series [2] addresses T3, butirrylcholinesterase from equine serum (BuChE) (Equus caballus, UniProt P81908).
T3 construct: butirrylcholinesterase from equine serum (BuChE); purchased Sigma-Aldrich (Milano, Italy); host or cells: equine serum
Nature of the series: biochemical. The following applies: for inhibition type determined for BuChE: from Km and Vmax at different inhibitor concentrations; for IC50: mean ± SD, three determinations, pH 7.4, 500 μM butirrylthiocholine. On the procedure:
as §1, §2

Series [3] concerns SH-SY5Y cells. The series is described as follows: Cell viability by MTT assay. The class given is cell-based, Human. Here is the method:
Human neuroblastoma SH-SY5Y cell line is the most widely used model to reproduce in vitro AD [37]. This cell line was acquired from the American Type Culture Collection (20099 Sesto San Giovanni, Milan, Italy) and maintained in culture in Dulbecco Modified’s Eagle’s Medium (DMEM) (supplemented with 100 U/mL penicillin, 100 µg/mL streptomycin, and 10% thermally inactivated bovine fetal serum). The cells were appropriately differentiated: a treatment with trans retinoid acid 10 µM for 5 days was chosen (Sigma Aldrich, 20151 Milan, Italy). […] At the end of the treatment, all appropriate tests were performed.
The use of 3-(4,5-dimethyl[…])-2,5-diphenyltetrazole (MTT) bromide allowed the determination of cell viability for the presence of active enzymes within mitochondria in living cells. Mitochondrial […] can reduce MTT by producing colorimetric modification whose spectrophotometric measurement provides valuable information on cell viability. An amount of 8 × 10^3 cells/well was plated onto 96-well plates. After 24 h, the culture medium was replaced with fresh phenol-free medium containing a solution of MTT (0.5 mg/mL), and after 4 h of incubation, 100 μL 10% SDS was added to each well to solubilize the formazan crystals. The optical density was measured at wavelengths of 540 and 690 nm using a spectrophotometric reader (X MARK Spectrophotometer Microplate Bio-Rad).
Aβ 25 μM peptide was incubated alone or in the presence the specific amount of each hybrid compound [28] for 24 h at room temperature prior to the cell treatment. […]
Background: Tetrazolium dyes change colour on reduction, which living cells bring about.

The subject of series [4] is SH-SY5Y cells. The series is described as follows: Intracellular ROS (H2DCF-DA, cytofluorimetric analysis). The class given is cell-based, Human. The following applies: Aβ peptide. On the procedure: Human neuroblastoma SH-SY5Y cell line is the most widely used model to reproduce in vitro AD [37]. This cell line was acquired from the American Type Culture Collection (20099 Sesto San Giovanni, Milan, Italy) and maintained in culture in Dulbecco Modified’s Eagle’s Medium (DMEM) (supplemented with 100 U/mL penicillin, 100 µg/mL streptomycin, and 10% thermally inactivated bovine fetal serum). The cells were appropriately differentiated: a treatment with trans retinoid acid 10 µM for 5 days was chosen (Sigma Aldrich, 20151 Milan, Italy). The medium was changed every 2–3 days, and when the cell line reached about 50% confluence, it was supplemented with the mixtures (MIX 0, 1, 2, 3, 4, 5, 6, 7) for a further 24 h. At the end of the treatment, all appropriate tests were performed.
The probe used to measure intracellular reactive oxygen species (ROS) is the molecule H2DCF-DA [39]. In fact, after its simple diffusion in cells, H2DCF-DA is cleaved by cellular esterases, which are responsible for the loss of an acetate group, transforming it into H2DCF. This compound can no longer leave the cell and binds the ROS to the highly fluorescent compound DCF. In this way, the quantification of DCF provides the content of cellular ROS. […] The fluorescence was evaluated by cytometric analysis (FACS Accury, Becton Dickinson, Milan, Italy). […]

Series [5] concerns cleaved caspase 3 in SH-SY5Y cells. Nature of the series: Cleaved caspase-3 expression, Western blotting. The class given is cell-based, Human. The following applies: mixtures 24 h; Aβ peptide vs untreated cells. On the procedure: The total lysates of SH-SY5Y cells were obtained from 6-multiwells. Lysates were taken after the cells were exposed to a preheated lysis buffer (80 °C) containing 50 mM of Tris-HCl (pH 6.8), 2% of SDS, and a protease inhibitor mixture and immediately boiled for 2 min. The protein concentration was determined using a DCA protein assay. After the addition of 0.05% bromophenol blue, 10% glycerol, and 2% β-mercaptoethanol, the samples were boiled again and loaded onto 12% SDS-polyacrylamide gels. Following electrophoresis, the polypeptides were transferred to nitrocellulose filters and blocked with TTBS/milk (TBS 1%, Tween 20, and nonfat dry milk 5%), and then the antibodies were used to reveal the respective antigens. Primary antibodies were incubated overnight at 4 °C, and, after washing, the filters were exposed to horseradish peroxidase-conjugated secondary antibody for 1 h at room temperature. The blots were developed using the chemiluminescence procedure. Experiments of immunoblot analysis were carried out in two ways: (a) electrophoresis of proteins obtained from cell extracts, as described; and (b) electrophoresis of proteins obtained by the formation of mixtures in the test tubes (in the absence of cells). […]
Background: Immunoblotting shows a protein as a band on a membrane.

The test system of series [6] is SH-SY5Y cells. Nature of the series: Malondialdehyde (MDA), TBA reaction. The class given is cell-based, Human. The note with it: Aβ peptide. On the procedure:
Lipid peroxidation was evaluated by measuring the reaction products of MDA with thiobarbituric acid (TBA), which forms a colorimetric product proportional to the MDA present. The cells were placed in 10 cm diameter cell culture and the following day were treated as indicated. At the end of the treatment, the cells were scraped, and then the suspension was subjected to freezing/thawing cycles. Subsequently, 36 mM TBA dissolved in glacial acetic acid was added and the mixture heated for 60 min to 100 °C. The reaction was interrupted by placing the vials on ice for 10 min, and a spectrophotometric reading was carried out at 532 nm.

T3 sequence (P81908 whole entry): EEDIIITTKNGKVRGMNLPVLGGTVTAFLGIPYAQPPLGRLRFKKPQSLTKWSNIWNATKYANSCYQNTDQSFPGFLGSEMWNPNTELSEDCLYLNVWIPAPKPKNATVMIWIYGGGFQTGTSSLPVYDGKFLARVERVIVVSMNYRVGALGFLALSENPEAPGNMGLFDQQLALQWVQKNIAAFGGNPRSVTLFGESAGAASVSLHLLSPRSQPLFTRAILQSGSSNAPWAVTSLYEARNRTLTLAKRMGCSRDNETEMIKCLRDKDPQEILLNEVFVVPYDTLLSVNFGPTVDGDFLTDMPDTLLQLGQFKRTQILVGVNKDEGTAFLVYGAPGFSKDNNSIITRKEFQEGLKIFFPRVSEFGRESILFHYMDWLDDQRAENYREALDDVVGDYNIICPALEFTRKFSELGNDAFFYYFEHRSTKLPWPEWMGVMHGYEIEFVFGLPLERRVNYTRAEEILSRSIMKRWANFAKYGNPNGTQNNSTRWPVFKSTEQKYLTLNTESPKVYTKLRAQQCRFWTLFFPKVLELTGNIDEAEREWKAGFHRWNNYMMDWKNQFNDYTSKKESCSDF
Chain of mouse BACE-1 (P56818 46-501): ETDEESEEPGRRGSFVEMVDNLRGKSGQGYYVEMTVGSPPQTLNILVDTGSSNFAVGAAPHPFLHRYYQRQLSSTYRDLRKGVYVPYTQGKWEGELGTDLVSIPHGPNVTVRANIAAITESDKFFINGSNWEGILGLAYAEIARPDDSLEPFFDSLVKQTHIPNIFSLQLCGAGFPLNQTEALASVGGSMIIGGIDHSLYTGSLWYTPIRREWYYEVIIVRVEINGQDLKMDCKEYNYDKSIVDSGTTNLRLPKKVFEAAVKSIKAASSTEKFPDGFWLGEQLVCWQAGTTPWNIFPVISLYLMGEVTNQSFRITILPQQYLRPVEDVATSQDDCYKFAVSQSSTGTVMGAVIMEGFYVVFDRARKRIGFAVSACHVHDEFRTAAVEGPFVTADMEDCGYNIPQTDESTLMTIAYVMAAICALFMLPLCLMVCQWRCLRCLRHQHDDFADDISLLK
T1 sequence (P05067 672-711): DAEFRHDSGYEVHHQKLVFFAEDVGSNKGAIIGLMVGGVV
T2 sequence (O42275 24-633): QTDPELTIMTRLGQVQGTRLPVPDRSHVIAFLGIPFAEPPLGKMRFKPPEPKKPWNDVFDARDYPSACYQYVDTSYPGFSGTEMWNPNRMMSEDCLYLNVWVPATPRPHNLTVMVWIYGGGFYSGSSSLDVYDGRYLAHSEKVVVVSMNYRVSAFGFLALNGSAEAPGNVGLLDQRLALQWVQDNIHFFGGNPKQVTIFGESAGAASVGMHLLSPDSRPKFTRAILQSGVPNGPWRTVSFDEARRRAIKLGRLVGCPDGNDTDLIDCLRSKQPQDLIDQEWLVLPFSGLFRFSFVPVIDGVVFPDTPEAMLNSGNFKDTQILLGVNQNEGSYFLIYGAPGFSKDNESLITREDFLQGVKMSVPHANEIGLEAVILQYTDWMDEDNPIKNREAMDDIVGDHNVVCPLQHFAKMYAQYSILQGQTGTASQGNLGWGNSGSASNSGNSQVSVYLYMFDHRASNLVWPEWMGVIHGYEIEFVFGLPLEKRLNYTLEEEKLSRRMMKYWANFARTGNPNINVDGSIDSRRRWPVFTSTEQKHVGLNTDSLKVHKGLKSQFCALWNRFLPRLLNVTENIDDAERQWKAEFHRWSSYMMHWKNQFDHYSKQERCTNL

`O=C(OCCc1ccc(O)c(O)c1)C1CCN(Cc2ccccc2)CC1` [HT1]: the IC50 is 11.3 ± 1.2 µM against mouse BACE-1, 375 ± 143 µM at Aβ 1–40 peptide, 6.5 ± 0.8 µM in series [1] and 20.3 ± 2.4 µM in series [2]. Also, the “mechanism of inhibition on AChE” value in series [1] was “uncompetitive”. In addition, the “inhibition type determined for BuChE” value in series [2] was “mixed”.

Regarding `CC(=O)Oc1ccc(CCOC(=O)C2CCN(Cc3ccccc3)CC2)cc1OC(C)=O` [HT1a], the IC50 was 16.9 ± 0.1 µM at mouse BACE-1, 106 ± 11.1 µM on Aβ 1–40 peptide, 4.3 ± 0.7 µM in series [1] and 4.2 ± 0.4 µM in series [2]. The “mechanism of inhibition on AChE” value in series [1] is “mixed”. For the same compound, the “inhibition type determined for BuChE” value in series [2] is listed as “mixed”.

For `O=C(OCCc1cc(O)c(O)cc1[N+](=O)[O-])C1CCN(Cc2ccccc2)CC1` [HT2], the IC50 at mouse BACE-1 amounted to 128 ± 42 µM; at Aβ 1–40 peptide, 418 ± 41.1 µM; in series [1], 3.8 ± 0.3 µM; in series [2] it was 31.8 ± 5.7 µM. Also, the “mechanism of inhibition on AChE” value in series [1] was “noncompetitive”. Besides, in series [2], the “inhibition type determined for BuChE” value is listed as “mixed”.

For the compound `COc1cc(CCOC(=O)C2CCN(Cc3ccccc3)CC2)ccc1O` [HT3], inhibition at mouse BACE-1 was half-maximal at 76.8 ± 3 µM (IC50). The “interference with fibril formation” value on Aβ 1–40 peptide was “did not interfere with fibril formation”. In series [1], the “mechanism of inhibition on AChE” value was “uncompetitive” and the midpoint of inhibition, the IC50, lay at 4 ± 0.4 µM. In series [2], the “inhibition type determined for BuChE” value is reported as “mixed” and it took 7.2 ± 0.9 µM to reach half-maximal inhibition (IC50).

As to `COc1cc(CCOC(=O)C2CCN(Cc3ccccc3)CC2)ccc1OC(C)=O` [HT3a], the IC50 on mouse BACE-1 was 19.7 ± 0.7 µM; in series [1], 2.6 ± 0.2 µM; in series [2], 4.3 ± 0.9 µM. The “interference with fibril formation” value at Aβ 1–40 peptide is “did not interfere with fibril formation”. For the same compound, in series [1], the “mechanism of inhibition on AChE” value is reported as “uncompetitive”. Besides, the “inhibition type determined for BuChE” value in series [2] was “noncompetitive”.

At mouse BACE-1, `O=C(OCCc1ccc(O)cc1)C1CCN(Cc2ccccc2)CC1` [HT4] yielded an IC50 of 52.2 ± 2.1 µM. For the same compound, the “interference with fibril formation” value on Aβ 1–40 peptide is on record as “did not interfere with fibril formation”. Moreover, in series [1], the “mechanism of inhibition on AChE” value is listed as “uncompetitive” and inhibition was half-maximal at 4.9 ± 0.5 µM (IC50). In addition, in series [2], the “inhibition type determined for BuChE” value is given as “noncompetitive” and the IC50 was found to be 22.9 ± 7.1 µM.

As to `CC(=O)Oc1ccc(CCOC(=O)C2CCN(Cc3ccccc3)CC2)cc1` [HT4a], the IC50 against mouse BACE-1 came out at 115 ± 5.1 µM; in series [1], 2.9 ± 0.2 µM; in series [2], 4.1 ± 0.5 µM. Also, the “interference with fibril formation” value on Aβ 1–40 peptide is given as “did not interfere with fibril formation”. Also, the “mechanism of inhibition on AChE” value in series [1] is reported as “uncompetitive”. The “inhibition type determined for BuChE” value in series [2] is on record as “mixed”.

As for “Aβ peptide: Human β-amyloid peptide (1–40, cat. ab120479) from Abcam”, the “reduction in cell vitality” value in the series with SH-SY5Y cells [3] (48 and 72 h, at the concentrations considered (0.1–100 μM)) is “more than 20%”. In addition, the cell viability entry with SH-SY5Y cells [3] (Aβ peptide 0.1 μM) was “ineffective”; in the series on SH-SY5Y cells [3] (Aβ peptide 1, 10 and 100 μM), “gradual and increasing reduction in cell viability”. Also, the “ROS in the cells” value is “no longer detectable” with SH-SY5Y cells [4] (after 48 and 72 h); “significant increase in ROS” in the series with SH-SY5Y cells [4] (after 24 h). In addition, the “expression of the cleaved form of caspase 3” value in series [5] is given as “increased expression of caspase 3”. Also, the malondialdehyde accumulation result with SH-SY5Y cells [6] (48 and 72 h) is “increasing accumulation of malondialdehyde”; in the series on SH-SY5Y cells [6] (after 24 h), “absent”.
